In patent US20110178396A1, “Nicotinamide Derivatives” (CRC FOR BIOMEDICAL IMAGING DEVELOPMENT LTD., priority 2008, published 2011):

Test system: B16F0 melanoma tumour
Experiment: Biodistribution in B16 melanoma bearing mice
Assay type: in vivo, C57BL/6J mice
Details: B16 melanoma bearing mice
Protocol: Animal experiments were performed in compliance with the NHMRC Australian Code of Practice for the care and use of animals for scientific purposes. Female C57BL/6J black and BALB/c nude albino mice of 5 weeks age were obtained from the Animal Resources Centre, Western Australia. B16F0 murine melanoma cells were originally obtained from European Collection of Cell Cultures (UK) and A375 human amelanotic melanoma cells were originally obtained from American Type Culture Collection (USA). Before transplantation, B16F0 and A375 melanoma cells were maintained as a monolayer in RPMI culture medium supplemented with 10% foetal calf serum and antibiotics and passaged with trypsinisation. Early passages were frozen and stored in liquid nitrogen. Cells were passaged to P=10 and then discarded. Frozen aliquots were grown in a monolayer culture to between 80-95% confluence and for transplantation were trypsinised and washed with Ca^2+ and Mg^2+ free phosphate buffered saline (PBS). For inoculation, B16F0 melanoma cells were resuspended in Ca^2+ and Mg^2+ free PBS at 3 or 5×10^6 viable cells per ml and 0.1 ml was subcutaneously injected at the left flank of 6-7 weeks old C57BL/6J mice. Eleven days later, tumours could be palpated in >98% of inoculated animals. A375 human melanoma cells were resuspended at 1×10^7 viablecells per ml and 0.1 ml was injected subcutaneously at the left flank of 6 weeks old BALB/c nude mice and 25-26 days later tumours could be palpated with ˜60% of inoculated animals developing tumours.
Eleven days (B16F0 melanoma) and 25 days (A375 human melanoma) after tumour transplantation, the [^18F]nicotinamides (0.5-1.5 MBq, 100 μl) and [^123I]nicotinamide (0.37-0.74 MBq, 100 μl) derivatives were injected intravenously via the tail vein into mice (15-18 g). Time points of 1, 3, 6, 24, 48, 72 h after injection were chosen for determining the distribution of each compound in various organs and tissues for the iodine-123 labelled compounds and between 15 min and 6 hours (e.g. 15 min, 30 min, 1 h, 2 h, 4 h or 6 h) were chosen for the ^18F-labelled compounds. At defined times post injection, groups of mice (n=5) were weighed, sacrificed by CO2 administration followed by cervical dislocation and dissected. Selected organs were weighed and their radioactivity measured with a γ-counter. The remaining activity in the carcass was also determined in order to obtain the total activity in the mouse at defined time points. The fraction of injected activity (% ID) in the organ was calculated by comparison with suitable dilutions of the injected dose. Then, the radioactivity concentration in the organ (% ID/g) was found by dividing the % ID for each organ by the weight of the organ.

uptake BLOOD (15 min): 2.048 % ID/g | uptake BONE (15 min): 3.493 % ID/g | uptake BRAIN (15 min): 2.471 % ID/g | uptake EYES (15 min): 14.678 % ID/g | uptake GIT (15 min): 5.421 % ID/g | uptake HEART (15 min): 3.153 % ID/g | uptake KIDNEY (15 min): 14.117 % ID/g | uptake LIVER (15 min): 10.148 % ID/g | uptake LUNGS (15 min): 5.616 % ID/g | uptake MUSCLE (15 min): 3.796 % ID/g | uptake SKIN (15 min): 2.214 % ID/g | uptake SPLEEN (15 min): 8.585 % ID/g | uptake STOMACH (15 min): 9.344 % ID/g | uptake THYROID (15 min): 5.515 % ID/g | uptake TUMOUR (15 min): 6.970 % ID/g | uptake BLOOD (30 min): 1.218 % ID/g | uptake BONE (30 min): 2.078 % ID/g | uptake BRAIN (30 min): 1.997 % ID/g | uptake EYES (30 min): 15.976 % ID/g | uptake GIT (30 min): 3.855 % ID/g | uptake HEART (30 min): 1.902 % ID/g | uptake KIDNEY (30 min): 9.595 % ID/g | uptake LIVER (30 min): 5.825 % ID/g | uptake LUNGS (30 min): 2.922 % ID/g | uptake MUSCLE (30 min): 2.240 % ID/g | uptake SKIN (30 min): 1.473 % ID/g | uptake SPLEEN (30 min): 7.225 % ID/g | uptake STOMACH (30 min): 6.639 % ID/g | uptake THYROID (30 min): 2.537 % ID/g | uptake TUMOUR (30 min): 8.582 % ID/g | uptake BLOOD (1 h): 0.619 % ID/g | uptake BONE (1 h): 1.368 % ID/g | uptake BRAIN (1 h): 1.096 % ID/g | uptake EYES (1 h): 18.808 % ID/g | uptake GIT (1 h): 2.102 % ID/g | uptake HEART (1 h): 0.977 % ID/g | uptake KIDNEY (1 h): 3.446 % ID/g | uptake LIVER (1 h): 2.813 % ID/g | uptake LUNGS (1 h): 1.632 % ID/g | uptake MUSCLE (1 h): 1.248 % ID/g | uptake SKIN (1 h): 0.766 % ID/g | uptake SPLEEN (1 h): 2.393 % ID/g | uptake STOMACH (1 h): 3.370 % ID/g | uptake THYROID (1 h): 3.327 % ID/g | uptake TUMOUR (1 h): 8.376 % ID/g | uptake BLOOD (2 h): 0.147 % ID/g | uptake BONE (2 h): 0.578 % ID/g | uptake BRAIN (2 h): 0.270 % ID/g | uptake EYES (2 h): 17.281 % ID/g | uptake GIT (2 h): 0.708 % ID/g | uptake HEART (2 h): 0.246 % ID/g | uptake KIDNEY (2 h): 0.676 % ID/g | uptake LIVER (2 h): 0.693 % ID/g | uptake LUNGS (2 h): 0.386 % ID/g | uptake MUSCLE (2 h): 0.276 % ID/g | uptake SKIN (2 h): 0.356 % ID/g | uptake SPLEEN (2 h): 1.848 % ID/g | uptake STOMACH (2 h): 1.472 % ID/g | uptake THYROID (2 h): 0.609 % ID/g | uptake TUMOUR (2 h): 9.416 % ID/g | uptake BLOOD (3 h): 0.111 % ID/g | uptake BONE (3 h): 0.624 % ID/g | uptake BRAIN (3 h): 0.150 % ID/g | uptake EYES (3 h): 17.276 % ID/g | uptake GIT (3 h): 0.541 % ID/g | uptake HEART (3 h): 0.166 % ID/g | uptake KIDNEY (3 h): 0.394 % ID/g | uptake LIVER (3 h): 0.491 % ID/g | uptake LUNGS (3 h): 0.253 % ID/g | uptake MUSCLE (3 h): 0.201 % ID/g | uptake SKIN (3 h): 0.172 % ID/g | uptake SPLEEN (3 h): 0.890 % ID/g | uptake STOMACH (3 h): 0.828 % ID/g | uptake THYROID (3 h): 0.488 % ID/g | uptake TUMOUR (3 h): 7.753 % ID/g | uptake BLOOD (6 h): 0.020 % ID/g | uptake BONE (6 h): 0.515 % ID/g | uptake BRAIN (6 h): 0.039 % ID/g | uptake EYES (6 h): 15.591 % ID/g | uptake GIT (6 h): 0.135 % ID/g | uptake HEART (6 h): 0.054 % ID/g | uptake KIDNEY (6 h): 0.075 % ID/g | uptake LIVER (6 h): 0.123 % ID/g | uptake LUNGS (6 h): 0.066 % ID/g | uptake MUSCLE (6 h): 0.032 % ID/g | uptake SKIN (6 h): 0.041 % ID/g | uptake SPLEEN (6 h): 0.470 % ID/g | uptake STOMACH (6 h): 0.193 % ID/g | uptake THYROID (6 h): 0.168 % ID/g | uptake TUMOUR (6 h): 7.747 % ID/g | uptake in melanin containing tissue (tumour and eyes) (six hour period): high uptake | washout in all other tissue (six hour period): rapid washout
Compound: CCN(CC)CCNC(=O)c1ccc(F)nc1 [[^18F]MEL2, 6-Fluoro-N-[2-(diethylamino)ethyl]nicotinamide]
